# Laboratory results published in patent US20240025904A1, “PDE9 INHIBITORS FOR TREATING CARDIAC FAILURE” (Cardurion Pharmaceuticals, Inc., priority 2020, published 2024).
# Several values for one entry are separate records, joined by “and”; a condition that tells them apart may be missing. Identical values can stand only once.
# Assays:
# [1] = tested on: adult patients with sickle cell disease; assay: IMR-SCD-102 Phase 2a trial, plasma NT-proBNP; assay type: in vivo, human
# Description: IMR-SCD-102 is an ongoing Phase 2a randomized double-blind placebo-controlled trial testing Compound 1 (IMR-687) at 50 mg-200 mg daily as monotherapy or 50-100 mg in combination with background hydroxyurea therapy (Compound 1+HU). A protocol amendment later in the study allowed for sample collection and characterization of NT-proBNP levels in the combination cohort (Compound 1+HU versus HU alone). Plasma NT-proBNP was measured in 15 subjects (100% HbSS genotype) at randomization and again at 4 months. A 2:1 randomization schema favoring combination treatment translated to 10 subjects on Compound 1+HU and 5 on HU alone. Baseline, 4-month follow-up, and change in NT-proBNP levels were quantified. Further, whether the change in NT-proBNP level varied according to treatment and baseline NT-proBNP level was tested.
# [2] = tested on: angiotensin II-infused mouse (Ang-II model of HFpEF); assay: Angiotensin II infusion mouse model of HFpEF; assay type: in vivo
# Description: C57BL/6J mice develop compensatory concentric hypertrophy and fibrosis in response to angiotensin II. Pulmonary congestion, as well as exercise intolerance, are evident and seem to be related to angiotensin II-induced skeletal muscle abnormalities, including impaired mitochondrial function and skeletal muscle atrophy. In summary, if strain and dosage are optimized to mirror the human HFpEF phenotype, angiotensin II infusion appears to be a relevant HFpEF model.
# Model 2: eight-week-old C57BL/6J male mice were anesthetized with isoflurane and subcutaneously implanted with an osmotic minipump to continuously infuse angiotensin II in 10 mM acetic acid at a dose of 1.5 mg/kg per day over a period of 4 to 6 weeks. Experimental animal groups were randomly assigned to receive either vehicle or Compound 1 at 60 mg/kg/day or 100 mg/kg/day by oral gavage for 4 or 6 weeks (36 mice, N=6/group) over the same time period. The mice were housed in a standard-temperature, 12 h/12 h light/dark controlled room, with water and standard rodent diet available ad libitum. Mice were euthanized 4 or 6 weeks after angiotensin-II infusion. It has been shown that administering of 60 mg/kg of Compound 1 in mice is equivalent to administering about 4.8 mg/kg of Compound 1 in adult human subjects. Similarly, it has been shown that administering 100 mg/kg of Compound 1 in mice is equivalent to administering about 8.1 mg/kg of Compound 1 in human subjects.
# (§1) Methods: Cardiac and renal responses to Compound 1 (60 mg/kg, 100 mg/kg) compared with vehicle were examined over 6-8 weeks in 3 adult male mouse models of HFpEF (1.5 mg/kg/d angiotensin-II infusion [ang-II]; uninephrectomy+0.30 μg/h d-aldosterone infusion+1% NaCl drinking water [neph-aldo]; and db/db [db]). Phenotyping included wheat germ agglutinin staining for cardiomyocyte cross-sectional area (CSA); RT-PCR for myocardial PDE9, natriuretic peptide, inflammatory and fibrosis marker transcript abundances; ELISA for plasma natriuretic peptides; and urinary albumin to creatinine ratio (UACR).
# (§2) P-value from Wilcoxon rank-sum test. Ang-II model (8-week old C57BL/6 mice were infused with ang-II at […] for 6 weeks with concomitant Compound 1 or vehicle). Neph+d-aldo+1% NaCl model (8-week old C57BL/6 mice underwent uninephrectomy then were infused with d-aldosterone for 6 weeks with ad-libitum 1% NaCl drinking water while receiving concomitant Compound 1 or vehicle). db model (20-week old BKS.Cg-Dock7m+/+Leprdb/J received vehicle or Compound 1 for 8 weeks). mRNA expression levels were normalized to GAPDH, Rpl4 and Eef1e1.
# db/db mouse = db/db mouse model of HFpEF; assay type: in vivo
# Description: The db/db leptin receptor-deficient mouse has a point mutation in the diabetes (db) gene encoding the leptin receptor, which spontaneously causes morbid obesity accompanied by severe hyperglycemia secondary to type 2 diabetes. […] At the histological level, these mice hearts have enlarged cardiomyocytes, evidence of fibrosis, and capillary rarefaction. The db/db mice appear to represent the obese/metabolic HFpEF phenotype, with evidence of HF, whereas LVEF is preserved.
# Model 3: twenty-week old male diabetic-prone, obese db/db mice of the BKS.Cg-Dock7m+/+Leprdb/J strain will be randomly assigned (30 mice, n=10/group) to receive vehicle or chronic Compound 1 treatment at 60 mg/kg/day or 100 mg/kg/day. Treatment will be carried for 8 weeks using subcutaneous osmotic pumps. The mice will be housed in a standard-temperature, 12 h/12 h light/dark controlled room, with water and standard rodent diet available ad libitum.
# as §1, §2
# patient = assay: Administration with food, adverse event profile; assay type: in vivo; details: once a day with food
# [3] = tested on: aldosterone-infused and unilateral nephrectomized mouse (neph-aldo model of HFpEF); assay: Uninephrectomy + d-aldosterone infusion + 1% NaCl mouse model of HFpEF; assay type: in vivo
# Description: Mice subjected to uninephrectomy and aldosterone infusion for 4 to 6 weeks, accompanied by 1% NaCl intake, develop HFpEF with moderate hypertension, concentric left ventricle hypertrophy, pulmonary congestion, and echocardiographic evidence of diastolic dysfunction while maintaining a normal/preserved LVEF. These mice also show exercise impairment. At the molecular level, left ventricle tissue from these mice show an increase in natriuretic peptides, cardiac size and fibrosis, as well as an increase in the oxidative stress.
# Model 1: eight-week-old C57BL/6J male mice were anesthetized with 100 mg/kg ketamine and 10 mg/kg xylazine intraperitoneally. All mice underwent unilateral nephrectomy and then will receive a continuous infusion of d-aldosterone (0.30 μg/h) via osmotic minipumps. All mice were maintained on 1.0% sodium chloride drinking water. Mice were randomized to receive either vehicle or Compound 1 at 60 mg/kg/day or 100 mg/kg/day by oral gavage for 4 or 6 weeks (36 mice, N=6/group). The mice were housed in a standard-temperature, 12 h/12 h light/dark controlled room, with water and standard rodent diet available ad libitum. Mice were euthanized 4 or 6 weeks after the beginning of the treatment. It has been shown that administering of 60 mg/kg of Compound 1 in mice is equivalent to administering about 4.8 mg/kg of Compound 1 in adult human subjects. Similarly, it has been shown that administering 100 mg/kg of Compound 1 in mice is equivalent to administering about 8.1 mg/kg of Compound 1 in human subjects.
# as §1, §2
# [4] = median, Ang-II model, 6 weeks, normalized to GAPDH, Rpl4 and Eef1e1
# [5] = median, db/db model, 8 weeks, normalized to GAPDH, Rpl4 and Eef1e1
# [6] = median, Neph + Aldo model, 6 weeks
# [7] = median, Neph + Aldo model, 6 weeks, normalized to GAPDH, Rpl4 and Eef1e1
compound,measurement,setting,value
"NC(=O)NO [HU, hydroxyurea]",treated subjects with greater than 50% reduction in NT-proBNP levels,[1]; at 4 months,none
same,mean 4-month follow-up NT-proBNP level,"[1]; plasma, 4 months",436 pg/mL
same,mean NT-proBNP higher at 4 months than baseline,"[1]; plasma, 4 months",27.0% and 27. %
same,"mean increase of NT-proBNP, baseline to 4 months","[1]; plasma, 4 months",93 pg/mL
same,mean baseline NT-proBNP level,"[1]; plasma, at randomization",343 pg/mL
same,average increase in NT-proBNP between baseline and 4 months,[1]; subjects with baseline NT-proBNP ≥400 pg/ml,28%
"C[C@@H]1CN(Cc2ncccn2)C[C@H]1c1cn2c(C3CCOCC3)ncc2c(=O)[nH]1 (single isomer, unassigned) [Compound 1]",heart size and cardiomyocyte hypertrophy,"[2]; 6 weeks of dosing at 60 and 100 mg/kg, FIGS. 1A, 1B",decreases
same,"Heart rate and blood pressure, Compound 1 vs vehicle treated mice",[2]; ang-II model,did not differ
same,reduction of median cardiomyocyte size (CSA) compared with vehicle,"[2]; ang-II model, Compound 1 60 mg/kg, 100 mg/kg, p<0.003",54%
same,ANP and BNP markers of cardiac dysfunction,"[2]; dosing with 60 and 100 mg/kg, FIGS. 3A, 3B left side",decreases
same,PDE5 and PDE9 expression,"[2]; in combination with Angiotensin II, FIG. 4A",increased
same,markers of myocardial inflammation,"[2]; in combination with Angiotensin II, FIG. 8A",decreases
same,heart fibrosis (TGF-ß1 and downstream targets Fibronectin and Collagen type I and III),"[2]; in combination with Angiotensin II, FIGS. 6A, 6B",decreases
same,Plasma ANP,"[2]; median, Ang-II model, 6 weeks",968 pg/mL
same,Plasma BNP,"[2]; median, Ang-II model, 6 weeks",2376 pg/mL
same,Urine UACR (urinary albumin to creatinine ratio),"[2]; median, Ang-II model, 6 weeks",95.5 µg/mg
same,Myocardial mRNA PDE9,"[2]; median, Ang-II model, 6 weeks, Compound 1 60 mg/kg, 100 mg/kg, normalized to GAPDH, Rpl4 and Eef1e1",1.7
same,Myocardial mRNA COL3A1,[2]; [4],1.5
same,Myocardial mRNA IL-1b,[2]; [4],1.9
same,Myocardial mRNA NPPA,[2]; [4],1.4
same,Myocardial mRNA NPPB,[2]; [4],2.0
same,"Heart rate and blood pressure, Compound 1 vs vehicle treated mice",db/db mouse; db model,did not differ
same,reduction of median cardiomyocyte size (CSA) compared with vehicle,"db/db mouse; db model, Compound 1 60 mg/kg, 100 mg/kg, p<0.003",35%
same,Plasma ANP,"db/db mouse; median, db/db model, 8 weeks",714 pg/mL
same,Plasma BNP,"db/db mouse; median, db/db model, 8 weeks",830 pg/mL
same,Urine UACR (urinary albumin to creatinine ratio),"db/db mouse; median, db/db model, 8 weeks",132.5 µg/mg
same,Myocardial mRNA PDE9,"db/db mouse; median, db/db model, 8 weeks, Compound 1 60 mg/kg, 100 mg/kg, normalized to GAPDH, Rpl4 and Eef1e1",1.5
same,Myocardial mRNA COL3A1,db/db mouse; [5],1.1
same,Myocardial mRNA IL-1b,db/db mouse; [5],3.6
same,Myocardial mRNA NPPA,db/db mouse; [5],1.7
same,Myocardial mRNA NPPB,db/db mouse; [5],2.2
same,"effect of food on adverse event profile (nausea, emesis, headache)",patient,reduce the adverse event profile dramatically
same,heart size and cardiomyocyte hypertrophy,"[3]; after 4 weeks of dosing at 60 and 100 mg/kg, FIGS. 2A, 2B",decreases
same,ANP and BNP markers of cardiac dysfunction,"[3]; dosing with 60 and 100 mg/kg, FIGS. 3A, 3B right side",decreases
same,PDE5 and PDE9 expression,"[3]; in combination with nephrectomy-aldosterone, FIG. 4B",increased
same,heart fibrosis (TGF-ß1 and downstream targets Fibronectin and Collagen type I and III),"[3]; in combination with nephrectomy-aldosterone, FIG. 7",decreases
same,markers of myocardial inflammation,"[3]; in combination with nephrectomy-aldosterone, FIG. 8B",decreases
same,Plasma ANP,[3]; [6],740 pg/mL
same,Plasma BNP,[3]; [6],1216 pg/mL
same,Urine UACR (urinary albumin to creatinine ratio),[3]; [6],48.4 µg/mg
same,Myocardial mRNA PDE9,"[3]; median, Neph + Aldo model, 6 weeks, Compound 1 60 mg/kg, 100 mg/kg, normalized to GAPDH, Rpl4 and Eef1e1",3.7
same,Myocardial mRNA COL3A1,[3]; [7],2.6
same,Myocardial mRNA IL-1b,[3]; [7],2.5
same,Myocardial mRNA NPPA,[3]; [7],4.9
same,Myocardial mRNA NPPB,[3]; [7],4.2
same,"Heart rate and blood pressure, Compound 1 vs vehicle treated mice",[3]; neph-aldo model,did not differ
same,reduction of median cardiomyocyte size (CSA) compared with vehicle,"[3]; neph-aldo model, Compound 1 60 mg/kg, 100 mg/kg, p<0.003",58%
